Assay results published in PMC6199279, “Design of Peptoid-peptide Macrocycles to Inhibit the β-catenin TCF Interaction in Prostate Cancer” (Nature Communications, 2018).
Numbered stars: 1 amine (or outer) side, 2 acyl side, 3 side chain; on linkers, the order of the positions; unused ones are H or OH. Square brackets hold non-standard residues; d marks the D form. Peptide text beside a SMILES is read from it. N(2-(2-PhOPh)Et)Gly = O=C(O)CNCCc1ccccc1Oc1ccccc1; Gly(N-3,5-(OMe)2-Ph) = COc1cc(NCC(=O)O)cc(OC)c1; X1 = COc1ccc([C@H](C)N(CC(=O)[*:2])[*:1])cc1; N((CH2)3OiPr)Gly = CC(C)OCCCNCC(=O)O

Key:
β-catenin = molecular target: T1, β-catenin (Homo sapiens, UniProt P35222); assay: Dynamic light scattering of β-catenin; assay type: binding; details: 10 µM compound vs 1% DMSO vehicle
T1 construct: His6-β-catenin armadillo domain, AA134-668; made in house; host or cells: E. coli BL21 DL3 (NEB)
T1 sequence (P35222 134-668): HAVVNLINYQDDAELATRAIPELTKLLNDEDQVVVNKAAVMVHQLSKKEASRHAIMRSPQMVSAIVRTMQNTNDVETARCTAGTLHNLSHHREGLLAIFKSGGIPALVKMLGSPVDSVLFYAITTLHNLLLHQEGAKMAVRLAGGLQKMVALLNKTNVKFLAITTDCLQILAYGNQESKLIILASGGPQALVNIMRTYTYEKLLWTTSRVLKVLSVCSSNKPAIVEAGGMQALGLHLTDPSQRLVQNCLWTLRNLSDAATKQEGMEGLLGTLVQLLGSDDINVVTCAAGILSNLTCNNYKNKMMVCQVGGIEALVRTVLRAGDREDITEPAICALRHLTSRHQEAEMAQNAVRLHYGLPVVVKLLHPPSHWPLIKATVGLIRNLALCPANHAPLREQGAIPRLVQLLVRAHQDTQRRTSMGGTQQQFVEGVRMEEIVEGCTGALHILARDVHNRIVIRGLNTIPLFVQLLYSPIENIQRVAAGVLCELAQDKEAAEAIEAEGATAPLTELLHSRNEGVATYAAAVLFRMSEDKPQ
Procedure: (§1) We next characterized the dose response curves for compound 13 in the Wnt and AR luciferase reporters. The linear version of 13 (linear 13: NH2-|N-mpp, N-dmp, N-ipp, N-Smpe, N-Smpe, D-Ala|-OH) was used as a control compound. […] To test direct binding, we pre-formed dynamic light scattering (DLS) with β-catenin in the presence of vehicle, compound 13, and α-cyclodextrin. […] HEK293 cells were transiently transfected with a plasmid expressing full length, myc-tagged TCF4. After 48 h treatment with either vehicle (DMSO) or 10 µM 13, cells were lysed and myc-TCF4 protein was immunoprecipitated.

[1] = tested on: Wnt signaling in zebrafish embryos; details: zebrafish, in vivo
Procedure: To evaluate the efficacy of 13 in vivo, we utilized a Danio rerio (zebrafish) model. […] To test this, BIO was added to zebrafish embryos at 6 hpf with and without 13 as described in Fig. 6a.
The zebrafish phenotypic assay was conducted using wild-type zebrafish embryos seeded into a 96-well round bottom plate at 4 hpf in 50 µl of Fish Water (60 mg/l sea salt, Instant Ocean, Blacksburg, VA, USA) supplemented with 1 mg per L Methylene Blue (Sigma-Aldrich). The embryos were not dechorionated. At 50% epiboly, roughly 5.5 hpf, 50 µl of 30 µM 13 or Linear 13 was added. About 30 min later at shield stage, 50 µl of 6 nM (3×) BIO was added. The embryos were then visualized for the presence of eyes and imaged at 30 hpf. Zebrafish embryos were randomly assigned to non-blinded treatment groups, none were excluded. Sample size was determined with a power calculation to achieve statistical significance (alpha = 0.05, beta = 0.2) if only 60% of the fish had developed eyes.

[2] = tested on: U2OS (osteosarcoma) cells; assay: 2D proliferation (CellTiter-Fluor viability), U2OS; assay type: cell-based; details: Wnt-independent cell line, 5 days
LNCaP-abl cells = details: read-out: IC50 proliferation, LNCaP-abl; 5 days of treatment
Procedure: (§2) To test the effect of 13 in a model of prostate cancer, we used the LNCaP-abl and LNCaP-95 cell lines. These cell lines were derived from androgen-sensitive LNCaP cells, and passaged in androgen-deprived media to mimic the development of castration resistance in patient tumors[54],[55]. We first isolated mRNA from LNCaP-abl and LNCaP-95 cells treated with vehicle, 10 µM 13 and linear 13 for 24 h to check the expression of endogenous Wnt and AR target genes (Fig. 4a). […] AR-V7 is particularly challenging to target as most AR antagonists target the ligand binding domain. […] To check if the changes in Wnt and AR target gene expression translated into effects on growth, the viability of LNCaP-abl and LNCaP-95 cells was determined after 5 days of treatment (Fig. 4b).
(§3) Data are presented as mean and SD (n = 3) of three independent experiments (a) or representative of three independent experiments (b, c).
(§4) LNCaP-abl and LNCaP-95 cells were cultured in indicator free RPMI 1640 media (Life) supplemented with 10% charcoal stripped FBS, 1% pennicillin/streptomycin, and 1% L-Glutamine. […] Both were measured using the ONE-Glo detection kit (Promega) and data is standardized to CellTiter-Fluor (Promega) viability readings to account for potential variations in well to well cell number. […] Total protein concentration in cell lysates were determined using Pierce Rapid Gold BCA Protein Assay Kit (Thermo). […]

LNCaP-95 cells = details: read-out: IC50 proliferation, LNCaP-95; 5 days of treatment
Procedure: as §2, §3, §4

[3] = tested on: A549 (lung adenocarcinoma) cells; assay: 2D proliferation (CellTiter-Fluor viability), A549; assay type: cell-based; details: Wnt-independent cell line, 5 days
[4] = molecular target: β-catenin:TCF4 interaction (Homo sapiens, UniProt P35222); assay: biochemical
Procedure: as §1

COc1ccc([C@H](C)N2CC(=O)N[C@H](C)C(=O)N(CCc3ccccc3Oc3ccccc3)CC(=O)N(c3cc(OC)cc(OC)c3)CC(=O)N(CCCOC(C)C)CC(=O)N([C@@H](C)c3ccc(OC)cc3)CC2=O)cc1 [Compound 13] (cyclo([dA][N(2-(2-PhOPh)Et)Gly][Gly(N-3,5-(OMe)2-Ph)][N((CH2)3OiPr)Gly][X1][X1]))
Shift in measured hydrodynamic radius of β-catenin (DLS) (β-catenin): significant shift
Harm to embryo development [1]: does not otherwise harm embryo development
Effect on proliferation of U2OS cells [2]: no effect
IC50 (LNCaP-abl cells): 195 nM
IC50 (LNCaP-95 cells): 782 nM
Effect on proliferation of A549 cells [3]: no effect
IC50 [4]: 5.44 µM
